Source: ChEMBL document CHEMBL3576842, “Selenium-containing chrysin and quercetin derivatives: attractive scaffolds for cancer therapy” (J Med Chem, 2015)
Active and inactive are the calls of the source. The calls are words filed in the database; no cut-off is given here.

Key:
HEK293 [1] = test: Selectivity index, ratio of IC50 for HEK293 cells to IC50 for human BxPC3 cells; type: functional
[2] = Cytotoxicity against human C13 cells assessed as cell growth inhibition after 72 hrs by MTT assay; type: functional, cell-based; conditions: C13, 72 h
MCF7 [3] = test: Increase in oxidant species production in human MCF7 cells at 25 uM by CM-DCFDA based fluorescence plate reader analysis; type: functional, cell-based
A-431 [4] = test: Cytotoxicity against human A431 cells assessed as cell growth inhibition after 72 hrs by MTT assay; type: functional, cell-based; conditions: A-431, 72 h
HEK293 [5] = test: Selectivity index, ratio of IC50 for HEK293 cells to IC50 for human A431 cells; type: functional
NCI/ADR-RES [6] = test: Selectivity index, ratio of IC50 for HEK293 cells to IC50 for human MCF7/ADR cells; type: functional
MCF7 [7] = test: Decrease in total sulfhydryl gropus in human MCF7 cells at IC50 after 24 hrs by DTNB reduction assay; type: functional
HCT-15 = test: Cytotoxicity against human HCT15 cells assessed as cell growth inhibition after 72 hrs by MTT assay; type: functional, cell-based; conditions: HCT-15, 72 h
[8] = target: T1, Glutathione reductase, mitochondrial (Homo sapiens) (UniProt P00390); test: Effect on glutathione reductase activity in human MCF7 cells using GSSG as substrate at 1.25 to 20 uM after 24 hrs by spectrophotometric analysis; type: cell-based
T1 sequence (whole entry): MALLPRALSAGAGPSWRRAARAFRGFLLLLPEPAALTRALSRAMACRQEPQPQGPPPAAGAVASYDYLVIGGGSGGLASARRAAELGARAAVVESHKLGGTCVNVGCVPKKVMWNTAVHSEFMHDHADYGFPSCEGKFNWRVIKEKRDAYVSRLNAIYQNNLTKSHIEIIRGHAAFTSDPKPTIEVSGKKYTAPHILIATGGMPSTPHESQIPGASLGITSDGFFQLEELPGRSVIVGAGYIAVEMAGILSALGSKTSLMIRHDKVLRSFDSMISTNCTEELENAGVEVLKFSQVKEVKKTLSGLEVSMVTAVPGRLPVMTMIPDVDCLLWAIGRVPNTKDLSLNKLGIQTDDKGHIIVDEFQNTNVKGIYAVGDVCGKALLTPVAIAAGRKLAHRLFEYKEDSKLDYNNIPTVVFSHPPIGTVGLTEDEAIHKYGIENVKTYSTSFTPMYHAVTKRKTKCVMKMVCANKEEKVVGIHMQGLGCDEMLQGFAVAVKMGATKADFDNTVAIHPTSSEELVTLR

[9] = Antioxidant activity assessed as glutathione peroxidase-like activity measured as time required to oxidize dithiothretol by 50% after addition of H2O2 at 3.24 umol; type: physicochemical
A-431 [10] = test: Resistance factor, ratio of IC50 for cisplatin-resistant human A431 cells to IC50 for human A431 cells; type: functional
MCF7 [11] = test: Cytotoxicity against human MCF7 cells assessed as cell growth inhibition after 72 hrs by MTT assay; type: functional, cell-based; conditions: MCF7, 72 h
[12] = Antioxidant activity assessed as DPPH radical scavenging activity after 1 hr; type: physicochemical
[13] = target: T2, Thioredoxin reductase (Homo sapiens) (UniProt Q16881+Q9NNW7+Q86VQ6); test: Inhibition of thioredoxin reductase activity in human MCF7 cells at 20 uM after 24 hrs by DTNB reduction assay; type: cell-based
HEK293 [14] = test: Selectivity index, ratio of IC50 for HEK293 cells to IC50 for human MCF7 cells; type: functional
HEK293 [15] = test: Selectivity index, ratio of IC50 for HEK293 cells to IC50 for human 2008 cells; type: functional
MCF7 [16] = test: Drug uptake in human MCF7 cells assessed as intracellular Se accumulation at 12.5 to 25 uM after 12 to 24 hrs by GF-AAS analysis; type: ADME, cell-based; conditions: mcf7, 25 µM
MCF7 [17] = test: Induction of apoptosis in human MCF7 cells assessed as decrease in mitochondrial membrane potential at IC50 after 48 hrs by flow cytometry; type: functional
NCI/ADR-RES [18] = test: Resistance factor, ratio of IC50 for human MCF7/ADR cells to IC50 for human MCF7 cells; type: functional
MCF7 [19] = test: Anticlonogenic activity against human MCF7 cells assessed as inhibition of clonogenic expansion after 6 hrs; type: functional, cell-based
A-431 [20] = test: Cytotoxicity against cisplatin-resistant human A431 cells assessed as cell growth inhibition after 72 hrs by MTT assay; type: functional, cell-based; conditions: A-431, 72 h
MCF7 [21] = test: Induction of apoptosis in human MCF7 cells assessed as brightly stained nuclei, chromatin condensation and fragmentation at IC50 after 48 hrs by Hoechst 33258/PI fluorescent staining analysis; type: functional, cell-based
A-375 = test: Cytotoxicity against human A375 cells assessed as cell growth inhibition after 72 hrs by MTT assay; type: functional, cell-based; conditions: A-375, 72 h
HEK293 [22] = test: Selectivity index, ratio of IC50 for HEK293 cells to IC50 for cisplatin-resistant human A431 cells; type: functional
HEK293 [23] = test: Selectivity index, ratio of IC50 for HEK293 cells to IC50 for human HCT15 cells; type: functional
C13 [24] = test: Resistance factor, ratio of IC50 for cisplatin-resistant human C13 cells to IC50 for human 2008 cells; type: functional
2008 = test: Cytotoxicity against human 2008 cells assessed as cell growth inhibition after 72 hrs by MTT assay; type: functional, cell-based; conditions: Homo sapiens, 2008, 72 h
[25] = Cytotoxicity against human BxPC3 cells assessed as cell growth inhibition after 72 hrs by MTT assay; type: functional, cell-based; conditions: BXPC-3, 72 h
MCF7 [26] = test: Increase in oxidized glutathione level in human MCF7 cells at IC50 after 48 hrs by spectrophotometric analysis; type: functional
MCF7 [27] = test: Induction of apoptosis in human MCF7 cells assessed as caspase-3 activation using DEVD-AFC as substrate at IC50 after 48 hrs by spectrofluorimeter analysis; type: functional
C13 [28] = test: Selectivity index, ratio of IC50 for HEK293 cells to IC50 for human C13 cells; type: functional
HEK293 [29] = test: Selectivity index, ratio of IC50 for HEK293 cells to IC50 for human A375 cells; type: functional
MCF7 [30] = test: Decrease in total glutathione level in human MCF7 cells at IC50 after 48 hrs by spectrophotometric analysis; type: functional
[31] = target: T2, Thioredoxin reductase (Homo sapiens); test: Increase in thioredoxin reductase activity in HEK293 cells at 0.0625 to 0.625 uM after 24 hrs by DTNB reduction assay; type: cell-based; set-up: scale not given: the % may be the effect or the level left
MCF7 [32] = test: Effect on glutathione peroxidase activity in human MCF7 cells using tert-butyl hydroperoxide and GSH as substrate at 1.25 to 20 uM after 24 hrs by spectrophotometric analysis; type: cell-based
HEK293 [33] = test: Cytotoxicity against HEK293 cells assessed as cell growth inhibition after 72 hrs by MTT assay; type: cell-based; conditions: Homo sapiens, HEK293, 72 h
[34] = Cytotoxicity against human MCF7/ADR cells assessed as cell growth inhibition after 72 hrs by MTT assay; type: functional, cell-based; conditions: NCI/ADR-RES

Structure (SMILES): Oc1cc(O)c2c(=[Se])cc(-c3ccccc3)oc2c1
- Ratio IC50 (HEK293 [1]): 3.7
- IC50 [2]: 4.04 µM
- Activity (MCF7 [3]): Active
- IC50 (A-431 [4]): 1.61 µM
- Ratio IC50 (HEK293 [5]): 3.7
- Ratio IC50 (NCI/ADR-RES [6]): 3.7
- inhibition (INH) (MCF7 [7]): 60%
- IC50 (HCT-15): 3.17 µM
- Activity [8]: inactive
- Time [9]: 3.62 min
- Ratio IC50 (A-431 [10]): 2
- IC50 (MCF7 [11]): 2.25 µM
- IC50 [12]: 659 µM
- inhibition [13]: 75%
- Ratio IC50 (HEK293 [14]): 3.7
- Ratio IC50 (HEK293 [15]): 3.7
- Drug uptake (MCF7 [16]): Active
- fold change (FC) (MCF7 [17]): 4
- Ratio IC50 (NCI/ADR-RES [18]): 0.9
- inhibition (MCF7 [19]): Active
- IC50 (A-431 [20]): 3.18 µM
- Activity (MCF7 [21]): Active
- IC50 (A-375): 1.09 µM
- Ratio IC50 (HEK293 [22]): 3.7
- Ratio IC50 (HEK293 [23]): 3.7
- Ratio IC50 (C13 [24]): 1.4
- IC50 2008: 2.87 µM
- IC50 [25]: 2.31 µM
- fold change (FC) (MCF7 [26]): 4
- fold change (FC) (MCF7 [27]): 4
- Ratio IC50 (C13 [28]): 3.7
- Ratio IC50 (HEK293 [29]): 3.7
- inhibition (INH) (MCF7 [30]): 60%
- Activity [31]: 35%
- Activity (MCF7 [32]): inactive
- IC50 (HEK293 [33]): 8.13 µM
- IC50 [34]: 1.96 µM
